Source: PubChem BioAssay (NCI)
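GI50: concentration for 50% inhibition of growth. TGI: concentration producing complete growth inhibition.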

Tests used:
Experiment in all cases: NCI anticancer screen, dose series, 384-well format
OVCAR-5 ovarian = test system: OVCAR-5 ovarian
HOP-92 NSCLC = test system: HOP-92 NSCLC
MDA-MB-231 breast = test system: MDA-MB-231 breast
KM12 colon = test system: KM12 colon
SNB-19 CNS = test system: SNB-19 CNS
NCI-H522 lung = test system: NCI-H522 lung
M14 melanoma = test system: M14 melanoma
SF-268 CNS = test system: SF-268 CNS
MDA-MB-468 breast = test system: MDA-MB-468 breast
PC-3 prostate = test system: PC-3 prostate
MOLT-4 leukemia = test system: MOLT-4 leukemia
A498 renal = test system: A498 renal
SF-539 CNS = test system: SF-539 CNS
TK-10 renal = test system: TK-10 renal
HT29 colon = test system: HT29 colon
HCT-15 colon = test system: HCT-15 colon
786-0 renal = test system: 786-0 renal
UO-31 renal = test system: UO-31 renal
HCT-116 colon = test system: HCT-116 colon
SN12C renal = test system: SN12C renal
U251 glioblastoma = test system: U251 glioblastoma
UACC-62 melanoma = test system: UACC-62 melanoma
MDA-MB-435 melanoma = test system: MDA-MB-435 melanoma
OVCAR-3 ovarian = test system: OVCAR-3 ovarian
NCI-H226 lung = test system: NCI-H226 lung
SNB-75 CNS = test system: SNB-75 CNS
SK-OV-3 ovarian = test system: SK-OV-3 ovarian
A549 NSCLC = test system: A549 NSCLC
LOX IMVI melanoma = test system: LOX IMVI melanoma
RPMI-8226 leukemia = test system: RPMI-8226 leukemia
HL-60(TB) leukemia = test system: HL-60(TB) leukemia
SF-295 CNS = test system: SF-295 CNS
HOP-62 NSCLC = test system: HOP-62 NSCLC
IGROV1 ovarian = test system: IGROV1 ovarian
SW-620 colon = test system: SW-620 colon
K-562 leukemia = test system: K-562 leukemia
ACHN renal = test system: ACHN renal
NCI-H23 lung = test system: NCI-H23 lung
SK-MEL-2 melanoma = test system: SK-MEL-2 melanoma
T-47D breast = test system: T-47D breast
CCRF-CEM leukemia = test system: CCRF-CEM leukemia
NCI/ADR-RES ovarian = test system: NCI/ADR-RES ovarian
SK-MEL-28 melanoma = test system: SK-MEL-28 melanoma
MCF7 breast = test system: MCF7 breast
CAKI-1 renal = test system: CAKI-1 renal
BT-549 breast = test system: BT-549 breast
OVCAR-8 ovarian = test system: OVCAR-8 ovarian
RXF 393 renal = test system: RXF 393 renal
DU-145 prostate = test system: DU-145 prostate
MALME-3M melanoma = test system: MALME-3M melanoma
EKVX NSCLC = test system: EKVX NSCLC
OVCAR-4 ovarian = test system: OVCAR-4 ovarian
SR leukemia = test system: SR leukemia
UACC-257 melanoma = test system: UACC-257 melanoma
NCI-H460 NSCLC = test system: NCI-H460 NSCLC
COLO 205 colon = test system: COLO 205 colon
SK-MEL-5 melanoma = test system: SK-MEL-5 melanoma
HCC-2998 colon = test system: HCC-2998 colon
NCI-H322M lung = test system: NCI-H322M lung

O=c1[nH]cc(N(CCCl)CCCl)c(=O)[nH]1
GI50 (OVCAR-5 ovarian): 20.1 µM
TGI (OVCAR-5 ovarian): 67.4 µM
GI50 (HOP-92 NSCLC): 19.3 µM
GI50 (MDA-MB-231 breast): 35.1 µM
GI50 (KM12 colon): 98.9 µM
GI50 (SNB-19 CNS): 24.6 µM
GI50 (NCI-H522 lung): 12.7 µM
TGI (NCI-H522 lung): 25.6 µM
GI50 (M14 melanoma): 9.7 µM
TGI (M14 melanoma): 61.6 µM
GI50 (SF-268 CNS): 5.68 µM
TGI (SF-268 CNS): 41.1 µM
GI50 (MDA-MB-468 breast): 2.73 µM
TGI (MDA-MB-468 breast): 14.2 µM
GI50 (PC-3 prostate): 73.1 µM
GI50 (MOLT-4 leukemia): 0.594 µM
TGI (MOLT-4 leukemia): 1.87 µM
GI50 (A498 renal): 68.9 µM
GI50 (SF-539 CNS): 7.24 µM
TGI (SF-539 CNS): 29.8 µM
GI50 (TK-10 renal): 50 µM
GI50 (HT29 colon): 24.5 µM
GI50 (HCT-15 colon): 7.48 µM
GI50 ([…]-0 renal): 16.8 µM
GI50 (UO-31 renal): 20.3 µM
GI50 (HCT-116 colon): 7.54 µM
GI50 (SN12C renal): 4.66 µM
TGI (SN12C renal): 53.6 µM
GI50 (U251 glioblastoma): 10.2 µM
GI50 (UACC-62 melanoma): 6.43 µM
GI50 (MDA-MB-435 melanoma): 86.4 µM
GI50 (OVCAR-3 ovarian): 23.5 µM
GI50 (NCI-H226 lung): 51.4 µM
GI50 (SNB-75 CNS): 29.1 µM
GI50 (SK-OV-3 ovarian): 28.9 µM
GI50 (A549 NSCLC): 26.8 µM
GI50 (LOX IMVI melanoma): 19.4 µM
GI50 (RPMI-8226 leukemia): 6.85 µM
TGI (RPMI-8226 leukemia): 20.3 µM
GI50 (HL-60(TB) leukemia): 1.23 µM
TGI (HL-60(TB) leukemia): 2.57 µM
GI50 (SF-295 CNS): 8.54 µM
TGI (SF-295 CNS): 26.4 µM
GI50 (HOP-62 NSCLC): 7.79 µM
TGI (HOP-62 NSCLC): 31.3 µM
GI50 (IGROV1 ovarian): 91.9 µM
GI50 (SW-620 colon): 8.78 µM
GI50 (K-562 leukemia): 17.4 µM
GI50 (ACHN renal): 2.88 µM
TGI (ACHN renal): 8.7 µM
GI50 (NCI-H23 lung): 12.3 µM
TGI (NCI-H23 lung): 57.9 µM
GI50 (SK-MEL-2 melanoma): 68 µM
GI50 (T-47D breast): 30 µM
GI50 (CCRF-CEM leukemia): 2.21 µM
TGI (CCRF-CEM leukemia): 4.17 µM
GI50 (NCI/ADR-RES ovarian): 15.8 µM
GI50 (SK-MEL-28 melanoma): 65.8 µM
GI50 (MCF7 breast): 18 µM
GI50 (CAKI-1 renal): 4.39 µM
TGI (CAKI-1 renal): 76.3 µM
GI50 (BT-549 breast): 11.2 µM
TGI (BT-549 breast): 46.8 µM
GI50 (OVCAR-8 ovarian): 9.13 µM
GI50 (RXF 393 renal): 13.2 µM
TGI (RXF 393 renal): 27.4 µM
GI50 (DU-145 prostate): 14.1 µM
TGI (DU-145 prostate): 42.1 µM
GI50 (MALME-3M melanoma): 19.2 µM

O=C(NCC(=O)N1CC[C@H](NC2CCC(O)(c3ccc(-c4ncccn4)cn3)CC2)C1)c1cccc(C(F)(F)F)c1 (some centres not stated)
GI50 (OVCAR-5 ovarian): > 100 µM
TGI (OVCAR-5 ovarian): > 100 µM
GI50 (HOP-92 NSCLC): > 58.5 µM
TGI (HOP-92 NSCLC): > 100 µM
GI50 (MDA-MB-231 breast): 77.6 µM
TGI (MDA-MB-231 breast): > 100 µM
GI50 (EKVX NSCLC): 55.9 µM
TGI (EKVX NSCLC): > 100 µM
GI50 (KM12 colon): > 100 µM
TGI (KM12 colon): > 100 µM
GI50 (SNB-19 CNS): 97.5 µM
TGI (SNB-19 CNS): > 100 µM
GI50 (NCI-H522 lung): 65.6 µM
TGI (NCI-H522 lung): > 100 µM
GI50 (OVCAR-4 ovarian): > 60.6 µM
TGI (OVCAR-4 ovarian): > 100 µM
GI50 (M14 melanoma): > 49.1 µM
TGI (M14 melanoma): > 73.5 µM
GI50 (SF-268 CNS): > 81.4 µM
TGI (SF-268 CNS): > 100 µM
GI50 (MDA-MB-468 breast): 17.1 µM
TGI (MDA-MB-468 breast): 59.3 µM
GI50 (PC-3 prostate): 61.7 µM
TGI (PC-3 prostate): > 100 µM
GI50 (MOLT-4 leukemia): 20.9 µM
TGI (MOLT-4 leukemia): 63 µM
GI50 (A498 renal): 55.1 µM
TGI (A498 renal): > 100 µM
GI50 (SF-539 CNS): > 67.3 µM
TGI (SF-539 CNS): > 100 µM
GI50 (TK-10 renal): > 90 µM
TGI (TK-10 renal): > 100 µM
GI50 (HT29 colon): > 57.4 µM
TGI (HT29 colon): > 100 µM
GI50 (HCT-15 colon): > 66.7 µM
TGI (HCT-15 colon): > 100 µM
GI50 (SR leukemia): 17.4 µM
TGI (SR leukemia): 31.5 µM
GI50 ([…]-0 renal): 69.3 µM
TGI (786-0 renal): > 100 µM
GI50 (UO-31 renal): 81.2 µM
TGI (UO-31 renal): > 100 µM
GI50 (HCT-116 colon): 32.1 µM
TGI (HCT-116 colon): > 100 µM
GI50 (SN12C renal): > 100 µM
TGI (SN12C renal): > 100 µM
GI50 (U251 glioblastoma): 52.5 µM
TGI (U251 glioblastoma): > 100 µM
GI50 (UACC-62 melanoma): > 47.5 µM
TGI (UACC-62 melanoma): > 70.8 µM
GI50 (UACC-257 melanoma): 19.2 µM
TGI (UACC-257 melanoma): 41.1 µM
GI50 (MDA-MB-435 melanoma): > 100 µM
TGI (MDA-MB-435 melanoma): > 100 µM
GI50 (NCI-H460 NSCLC): 38.4 µM
TGI (NCI-H460 NSCLC): > 100 µM
GI50 (OVCAR-3 ovarian): > 81.8 µM
TGI (OVCAR-3 ovarian): > 100 µM
GI50 (NCI-H226 lung): > 58 µM
TGI (NCI-H226 lung): > 100 µM
GI50 (SNB-75 CNS): > 100 µM
TGI (SNB-75 CNS): > 100 µM
GI50 (SK-OV-3 ovarian): > 85.7 µM
TGI (SK-OV-3 ovarian): > 100 µM
GI50 (COLO 205 colon): > 87 µM
TGI (COLO 205 colon): > 100 µM
GI50 (A549 NSCLC): > 100 µM
TGI (A549 NSCLC): > 100 µM
GI50 (LOX IMVI melanoma): 53.6 µM
TGI (LOX IMVI melanoma): > 100 µM
GI50 (RPMI-8226 leukemia): 20.8 µM
TGI (RPMI-8226 leukemia): 74.2 µM
GI50 (HL-60(TB) leukemia): 30.9 µM
TGI (HL-60(TB) leukemia): > 70.2 µM
GI50 (SF-295 CNS): > 96.1 µM
TGI (SF-295 CNS): > 100 µM
GI50 (HOP-62 NSCLC): > 64.7 µM
TGI (HOP-62 NSCLC): > 100 µM
GI50 (IGROV1 ovarian): > 96 µM
TGI (IGROV1 ovarian): > 100 µM
GI50 (SW-620 colon): > 100 µM
TGI (SW-620 colon): > 100 µM
GI50 (SK-MEL-5 melanoma): 29.7 µM
TGI (SK-MEL-5 melanoma): > 52.1 µM
GI50 (K-562 leukemia): 15.4 µM
TGI (K-562 leukemia): 31.5 µM
GI50 (ACHN renal): > 100 µM
TGI (ACHN renal): > 100 µM
GI50 (HCC-2998 colon): 35.7 µM
TGI (HCC-2998 colon): > 82.3 µM
GI50 (NCI-H23 lung): 33.5 µM
TGI (NCI-H23 lung): > 88.2 µM
GI50 (SK-MEL-2 melanoma): > 64.4 µM
TGI (SK-MEL-2 melanoma): > 100 µM
GI50 (T-47D breast): 12.1 µM
TGI (T-47D breast): > 69.4 µM
GI50 (CCRF-CEM leukemia): 29.6 µM
TGI (CCRF-CEM leukemia): > 100 µM
GI50 (NCI/ADR-RES ovarian): > 100 µM
TGI (NCI/ADR-RES ovarian): > 100 µM
GI50 (SK-MEL-28 melanoma): > 60 µM
TGI (SK-MEL-28 melanoma): > 100 µM
GI50 (MCF7 breast): > 54.6 µM
TGI (MCF7 breast): > 100 µM
GI50 (CAKI-1 renal): 48.1 µM
TGI (CAKI-1 renal): > 100 µM
GI50 (BT-549 breast): 30 µM
TGI (BT-549 breast): > 100 µM
GI50 (OVCAR-8 ovarian): 96.8 µM
TGI (OVCAR-8 ovarian): > 100 µM
GI50 (RXF 393 renal): 23.6 µM
TGI (RXF 393 renal): 63.3 µM
GI50 (DU-145 prostate): > 100 µM
TGI (DU-145 prostate): > 100 µM
GI50 (NCI-H322M lung): > 92.4 µM
TGI (NCI-H322M lung): > 100 µM
GI50 (MALME-3M melanoma): > 56.4 µM
TGI (MALME-3M melanoma): > 90.9 µM
